What follows are compounds tested against T1, ATX in human plasma (Homo sapiens, UniProt Q13822) (assay: Analysis in vitro: detection of LPA in human plasma for screening activity (LPA 18:2 by LC/MS/MS)). Conditions: incubated 2 hours at 37° C., LPA 18:2 detected by LC/MS/MS.
T1 construct: blank plasma was derived from at least 6 individual people; from tissue; host or cells: human plasma (pooled from at least 6 individuals)
Format: biochemical
Text: Analysis In Vitro: Detection of LPA in Human Plasma for Screening Activity
Principle: LPC in plasma being used as a substrate, the produced LPA 18:2 (LPA 17:0 as an internal standard) is detected by LC/MS/MS quantitative analysis. At different concentrations of the compounds to be tested, the percentage of residual activity is obtained by the ratio of the production of LPA18:2 to that in the absence of the compounds to be tested, thereby calculating IC50 values.
Experiment procedures: blank plasma was derived from at least 6 individual people. The compounds to be tested were diluted from stock solution in 3-fold dilution gradient, to produce 8 concentrations of working solution (with zero) in series. 10 μL of the melting blank plasma samples were taken and iced methanol solution containing internal standard (LPA 17:0) was added to it, so that the mixture directedly performed protein precipitation, which served as a system control sample. 2 μL of the working solution in different concentration was taken and 198 μL of blank human plasma was added, which was incubated with a concentration of 0 to 10 μM. The samples were placed at an incubater containing 5% CO2 at 37° C., and incubated for 2 hours. When the incubation was completed, 10 μL of plasma sample was taken and appropriate volume of iced methanol solution containing internal standard (LPA 17:0) was added into it, so that the mixture directedly performed protein precipitation. The precipitation was centrifuged to take supernatant. LPA 18:2 was detected by LC/MS/MS and IC50 values were analyzed and calculated by software, seeing Table 2.

**Q.** Which IC50 does the source give for `CCc1nc2sc(N3CC(N(C)CC(=O)N4CC(O)C4)C3)nn2c1N(C)c1nc(-c2ccc(F)cc2)c(C#N)s1` [Example 63] here?
**A.** The IC50 was 0.01 to 100 nM.

**Q.** With `CCc1nc2sc(N3CCN(CC(=O)N4CC(O)C4)C(C)C3C)nn2c1N(C)c1nc(-c2ccc(F)cc2)c(C#N)s1` (centres unmarked) [Example 77, 2-{[6-ethyl-2-(4-(2-(3-hydroxyazetidin-1-yl)-2-oxoethyl)-2,3-dimethylpiperazin-1-yl)imidazo[2,1-b][1,3,4]thiadiazol-5-yl](methyl)amino}-4-(4-fluorophenyl)thiazole-5-carbonitrile] as the compound, how does the IC50 read?
**A.** The IC50 was 0.01 to 100 nM.

**Q.** `CCc1nc2sc(N3C[C@H](C)N(CC(=O)N4CC(O)C4)C[C@@H]3C)nn2c1N(C)c1nc(-c2ccc(F)cc2)c(C#N)s1` [Example 74, 2-{[6-ethyl-2-((2S,5S)-4-(2-(3-hydroxyazetidin-1-yl)-2-oxoethyl)-2,5-dimethylpiperazin-1-yl)imidazo[2,1-b][1,3,4]thiadiazol-5-yl](methyl)amino}-4-(4-fluorophenyl)thiazole-5-carbonitrile] was tested. Which IC50 did it give?
**A.** The IC50 was 0.01 to 100 nM.

**Q.** Which IC50 does the source give for `CCc1nc2sc(N3CCN(CC(=O)N4CC(O)C4)[C@H](C)C3)nn2c1N(C)c1nc(-c2ccc(F)cc2)c(C#N)s1` [Example 69, (R)-2-{[6-ethyl-2-(4-(2-(3-hydroxyazetidin-1-yl)-2-oxoethyl)-3-methylpiperazin-1-yl)imidazo[2,1-b][1,3,4]thiadiazol-5-yl](methyl)amino}-4-(4-fluorophenyl)thiazole-5-carbonitrile] here?
**A.** The IC50 was 100 to 500 nM.

**Q.** For `CCc1nc2sc(N3C[C@H](C)N(CC(=O)N4CC(O)C4)C[C@H]3C)nn2c1N(C)c1nc(-c2ccc(F)cc2)c(C#N)s1` (relative stereo) [Example 76, trans-2-{[6-ethyl-2-(4-(2-(3-hydroxyazetidin-1-yl)-2-oxoethyl)-2,5-dimethylpiperazin-1-yl)imidazo[2,1-b][1,3,4]thiadiazol-5-yl](methyl)amino}-4-(4-fluorophenyl)thiazole-5-carbonitrile], which IC50 is on record?
**A.** Its IC50 is 0.01 to 100 nM.

**Q.** With `CCc1nc2sc(N3CCC4(CN(CC(=O)N5CC(O)C5)C4)C3)nn2c1N(C)c1nc(-c2ccc(F)cc2)c(C#N)s1` [Example 54, 2-{[6-ethyl-2-(2-(2-(3-hydroxyazetidin-1-yl)-2-oxoethyl)-2,6-diazaspiro[3.4]octane-6-yl)imidazo[2,1-b][1,3,4]thiadiazol-5-yl](methyl)amino}-4-(4-fluorophenyl)thiazole-5-carbonitrile] as the compound, how does the IC50 read?
**A.** The IC50 was 100 to 500 nM.

**Q.** For `CCc1nc2sc(N3CC4CC(C3)N4CC(=O)N3CC(O)C3)nn2c1N(C)c1nc(-c2ccc(F)cc2)c(C#N)s1` [Example 61, 2-{[6-ethyl-2-(6-(2-(3-hydroxyazetidin-1-yl)-2-oxoethyl)-3,6-diazabicyclo[3.1.1]heptan-3-yl)imidazo[2,1-b][1,3,4]thiadiazol-5-yl](methyl)amino}-4-(4-fluorophenyl)thiazole-5-carbonitrile], which IC50 is on record?
**A.** Its IC50 is 100 to 500 nM.

**Q.** Which IC50 does the source give for `CCc1nc2sc(N3CCC(C(=O)N4CC(O)C4)CC3)nn2c1N(C)c1nc(-c2ccc(F)cc2)c(C#N)s1` [Example 79, 2-{[6-ethyl-2-(4-(3-hydroxyazetidin-1-carbonyl)piperidin-1-yl)imidazo[2,1-b][1,3,4]thiadiazol-5-yl](methyl)amino}-4-(4-fluorophenyl)thiazole-5-carbonitrile] here?
**A.** Its IC50 is 100 to 500 nM.

**Q.** Which IC50 does the source give for `CCc1nc2sc(N3CCN(CC(=O)N4CC(O)C4)C(C)(C)C3)nn2c1N(C)c1nc(-c2ccc(F)cc2)c(C#N)s1` [Example 65, 2-{[6-ethyl-2-(4-(2-(3-hydroxyazetidin-1-yl)-2-oxoethyl)-3,3-dimethylpiperazin-1-yl)imidazo[2,1-b][1,3,4]thiadiazol-5-yl](methyl)amino}-4-(4-fluorophenyl)thiazole-5-carbonitrile] here?
**A.** Its IC50 is 0.01 to 100 nM.

These compounds were tested against ATX (Homo sapiens, UniProt Q13822) (assay: Analysis in vitro: LPC was used as substrate for screening enzyme activity (Amplex Red fluorescence)). Conditions: inhibitory activity against ATX, with LPC as substrate.
Format: biochemical
Text: Analysis In Vitro: LPC was Used as Substrate for Screening Enzyme Activity
Principle: Lysophosphatidylcholine (LPC) as substrate is hydrolyzed by using the activity of lysoPLD enzyme, to produce lysophosphatidic acid (LPA) and choline, which is oxidized to produce H2O2 under the action of choline oxidase. In presence of horse radish peroxidase (HPR), Amplex Red reagent is reacted with H2O2 in a quantitative chemistry ratio of 1 to 1, to produce strong fluorescence products, which are detected by a fluorescent quantitative test.
Experimental procedures: the compounds to be tested were dissolved in DMSO, to prepare 10 mM of stock solution, which was diluted in a gradient concentration of 3 times with DMSO from 10 mM, to generate 10 concentration gradients. The reaction buffer solution was used for preparing a mixed solution 1 of 2 ng/μl ATX, 2 U/ml HRP and 0.2 U/ml choline oxidase in a final concentration. 20 μl of the above mixed solution 1 was added to each hole of an experiment board, […]. The compounds diluted with DMSO were transferred into an experiment board with Echo550. The reaction buffer solution was used for preparing a mixed solution 2 of […] LPC and 400 μM Amplex Red in a final concentration. 20 μl of the above mixed solution 2 was added to each hole of the experiment board. After addition, the experiment board was shook for 30 seconds on a shaker, and incubated for 30 minutes. Envision was used to read the fluorescence signals with an exciting light at 530 nm and emitted light at 590 nm. Inhibition ratio of the compounds to enzyme reaction was calculated according to the ratio of fluorescence, and IC50 of the compounds was analyzed and calculated by software, seeing Table 1.

**Q.** Which IC50 does the source give for `CCc1nc2sc(C3CCN(S(C)(=O)=O)CC3)nn2c1N(C)c1nc(-c2ccc(F)cc2)c(C#N)s1` [Example 16, 2-{[6-ethyl-2-(1-(methylsulfonyl)piperidin-4-yl)imidazo[2,1-b][1,3,4]thiadiazol-5-yl](methyl)amino}-4-(4-fluorophenyl)-thiazole-5-carbonitrile] here?
**A.** Its IC50 is no less than 1000 nM.

**Q.** For `CCc1nc2sc(N3CC[C@@H](N(C)CC(=O)N4CC(F)C4)C3)nn2c1N(C)c1nc(-c2ccc(F)cc2)c(C#N)s1` [Example 39, (R)-2-{[6-ethyl-2-(3-((2-(3-fluoroazetidin-1-yl)-2-oxoethyl)(methyl)amino)pyrrolidin-1-yl)imidazo[2,1-b][1,3,4]thiadiazol-5-yl](methyl)amino}-4-(4-fluorophenyl)thiazole-5-carbonitrile], which IC50 is on record?
**A.** The IC50 was 100 to 500 nM.

**Q.** `CCc1nc2sc(N3CCN(CC(=O)N4CC(O)C4)[C@@H](C(=O)OC)C3)nn2c1N(C)c1nc(-c2ccc(F)cc2)c(C#N)s1` [Example 84, methyl (R)-4-{5-[(5-cyano-4-(4-fluorophenyl)thiazol-2-yl)(methyl)amino]-6-ethylimidazo[2,1-b][1,3,4]thiadiazol-2-yl}-1-(2-(3-hydroxyazetidin-1-yl)-2-oxoethyl)piperazine-2-carboxylate] was tested. Which IC50 did it give?
**A.** Its IC50 is 100 to 500 nM.

**Q.** For `CCc1nc2sc(N3CCN(CC(=O)N4CC(O)C4)[C@H](C(=O)NC)C3)nn2c1N(C)c1nc(-c2ccc(F)cc2)c(C#N)s1` [Example 83, (S)-4-{5-[(5-cyano-4-(4-fluorophenyl)thiazol-2-yl)(methyl)amino]-6-ethylimidazo[2,1-b][1,3,4]thiadiazol-2-yl}-1-(2-(3-hydroxyazetidin-1-yl)-2-oxoethyl)-N-methylpiperazine-2-carboxamide], which IC50 is on record?
**A.** Its IC50 is 500 to 1000 nM.

**Q.** Which IC50 does the source give for `CCc1nc2sc(N3CCN(CC(=O)N4CC(O)C4)[C@H](CO)C3)nn2c1N(C)c1nc(-c2ccc(F)cc2)c(C#N)s1` [Example 82, (S)-2-{[6-ethyl-2-(4-(2-(3-hydroxyazetidin-1-yl)-2-oxoethyl)-3-(hydroxymethyl)piperazin-1-yl)imidazo[2,1-b][1,3,4]thiadiazol-5-yl](methyl)amino}-4-(4-fluorophenyl)thiazole-5-carbonitrile] here?
**A.** The IC50 was 100 to 500 nM.

**Q.** For `COCCc1nc2sc(N3CC[C@@H](N(C)CC(=O)N4CC(O)C4)C3)nn2c1N(C)c1nc(-c2ccc(F)cc2)c(C#N)s1` [Example 88, (R)-4-(4-fluorophenyl)-2-{[2-(3-((2-(3-hydroxyazetidin-1-yl)-2-oxoethyl)(methyl)amino)pyrrolidin-1-yl)-6-(2-methoxyethyl)imidazo[2,1-b][1,3,4]thiadiazol-5-yl](methyl)amino}thiazole-5-carbonitrile], which IC50 is on record?
**A.** Its IC50 is 100 to 500 nM.

**Q.** How did the IC50 turn out when `CN(c1nc(-c2ccc(F)cc2)c(C#N)s1)c1c(CCOCc2ccccc2)nc2sc(N3CC[C@@H](N(C)CC(=O)N4CC(O)C4)C3)nn12` [Example 86] was run?
**A.** Its IC50 is no less than 1000 nM.

**Q.** With `CCc1nc2sc(N3CC4(CN(CC(=O)N5CC(O)C5)C4)C3)nn2c1N(C)c1nc(-c2ccc(F)cc2)c(C#N)s1` [Example 6] as the compound, how does the IC50 read?
**A.** Its IC50 is 100 to 500 nM.

**Q.** `CCc1nc2sc(N3CCN(CC(=O)N4CC(O)C4)[C@@H](CO)C3)nn2c1N(C)c1nc(-c2ccc(F)cc2)c(C#N)s1` [Example 85, (R)-2-{[6-ethyl-2-(4-(2-(3-hydroxyazetidin-1-yl)-2-oxoethyl)-3-(hydroxymethyl)piperazin-1-yl)imidazo[2,1-b][1,3,4]thiadiazol-5-yl](methyl)amino}-4-(4-fluorophenyl)thiazole-5-carbonitrile] was tested. Which IC50 did it give?
**A.** The IC50 was 500 to 1000 nM.

**Q.** Which IC50 does the source give for `CCc1nc2sc(N3CCN(CC(=O)N4CC(O)C4)[C@H](C(=O)OC)C3)nn2c1N(C)c1nc(-c2ccc(F)cc2)c(C#N)s1` [Example 81, methyl (S)-4-{5-[(5-cyano-4-(4-fluorophenyl)thiazol-2-yl)(methyl)amino]-6-ethylimidazo[2,1-b][1,3,4]thiadiazol-2-yl}-1-(2-(3-hydroxyazetidin-1-yl)-2-oxoethyl)piperazine-2-carboxylate] here?
**A.** The IC50 was 0.01 to 100 nM.

**Q.** With `CCc1nc2sc(N3CCC(N(C)CC(=O)N4CC(F)C4)C3)nn2c1N(C)c1nc(-c2ccc(F)cc2)c(C#N)s1` (centres unmarked) [Example 33, 2-{[6-ethyl-2-(3-((2-(3-fluoroazetidin-1-yl)-2-oxoethyl)(methyl)amino)pyrrolidin-1-yl)imidazo[2,1-b][1,3,4]thiadiazol-5-yl](methyl)amino}-4-(4-fluorophenyl)thiazole-5-carbonitrile] as the compound, how does the IC50 read?
**A.** Its IC50 is 0.01 to 100 nM.

Reference: patent US11679108B2, “Aromatic heterocyclic compound, and pharmaceutical composition and use thereof” (GUANGZHOU HENOVCOM BIOSCIENCE CO., LTD., priority 2018, dated 2023)
